In PMC6382696, “Drug Repurposing: The Anthelmintics Niclosamide and Nitazoxanide Are Potent TMEM16A Antagonists That Fully Bronchodilate Airways” (Frontiers in Pharmacology, 2019):
Where “and” joins values, the source holds several entries; their conditions need not be identical. Equal entries are not always repeated. Entries after “also recorded” stand apart in the source; their conditions may differ. Where two headings read alike, the source gives them in different places.

Experiments:
COLO205 cells = test: QPatch electrophysiology of endogenous calcium-activated chloride current in COLO205 cells; type: cell-based, human; settings: 170 nM free calcium
Source text: HEK293 cells stably expressing the TMEM16A (acd) variant were purchased from SB Drug Discovery. The HEK293 TMEM16A (abc) stable cell line was from ChanTest and COLO-205 cells were purchased from ATCC. The same standard buffers and recording conditions listed below were used for QPatch studies on all three cell lines.
Recording Solutions: were made weekly as below and stored at room temperature until used. It is recommended not to add ATP to internal solution until immediately before using on the QPatch. The external buffer (in mM) was 140 NaCl, 4 KCl, 2 CaCl2, 1 MgCl2, 10 HEPES, 10 Glucose, pH7.4, while the internal buffer (in mM) was 110 CsCl, 20 TEA-Cl, 5.374 CaCl2, 1.75 MgCl2, 10 EGTA, 10 HEPES, 4 Na2ATP, pH 7.2.
Once established in whole-cell configuration, cells were clamped to a holding potential (Vhold) of 0 mV on 48 well single hole patch plate. A standardized IV protocol was used to elicit ionic current through the TMEM16A chloride channel at 20 s intervals. Steady-state voltage pulses were from −100 mV to +100 mV in +20 mV steps for a duration of 500 ms. After each pulse the voltage was returned to −100 mV for 50 ms to obtain tail currents, and then returned to the holding potential of 0 mV until the beginning of the next sweep. Block of TMEM16A chloride current due to test article was measured at the +100 mV depolarization sweep of the third and final IV protocol run per concentration addition. This ensures a minimum of 60 s per concentration incubation before measuring current block. Currents were acquired at 10 kHz and filtered at 2 kHz, leak subtraction and Rseries were disabled. […]
A cumulative concentration response was measured where each cell is exposed to five concentrations of test article with a dilution factor of 1:5 (e.g., 0.048, 0.24, 1.2, 6, and 30 μM). Cells were recorded for ∼60 s per solution/compound addition. […] Recovery/washout was monitored for a final minute with a final external solution addition.
Peak outward current magnitude at 540 ms through 550 ms of the IV step was measured for each sweep at […]. […]

human bronchial rings = test: Wire myograph bronchodilation of histamine pre-contracted human bronchial rings (Biopta)
Source text: Details of bronchodilator studies shown in Figure 5H, 6 and Supplementary Figure 40 are provided below as part of the end assay report on Study CUR011 by Lee Christie (Biopta). Donors with any of the following conditions were excluded from the study: asthma, COPD, emphysema, lung cancer, cystic fibrosis, pulmonary fibrosis, pulmonary hypertension, pneumonia. Donors were also excluded if they had smoked in the past 12 months. Non-transplantable lung tissue was acquired from organ donors post mortem. Any macroscopically diseased/necrotic tissue was rejected. […] Human airway rings were set up under isometric conditions on a wire myograph in order to examine the influence of the test articles on bronchodilation. In order to assess tissue viability, the airways were challenged with carbachol (10 μM) and then isoprenaline (10 μM) to assess their constriction and relaxation responses, respectively. […] Viable airways were pre-constricted with histamine (10 μM), then exposed to one of the following cumulative concentration response curves (CCRCs): positive control, vehicle (water, volume matched to positive control), test article, vehicle (DMSO concentration matched to test articles). At the end of each CCRC, theophylline (2.2 mM) was added to induce maximal relaxation of the tissue. […] Airways were re-tensioned to 1.0 – 1.5 g if the tension had dropped below 1.0 g during the first 30 min of equilibration. (b) Airways were exposed to carbachol (bath concentration 10 μM) in order to measure their contractile responses and then isoprenaline (10 μM) in order to assess their relaxation. Airways were washed out and allowed to return to baseline. (c) Airways were pre-constricted with histamine (10 μM) before conducting a CCRC to the test article, the positive control (isoprenaline), test article vehicle or positive control vehicle.

HT29 = test system: HT29; parameters: method as in Li et al., 2014; settings: ref Li et al., 2014, read-out: IC50 inhibition of proliferation; cited from earlier work
[1] = test system: Wnt/β-catenin transcription; test: Wnt/β-catenin transcription TOPFlash reporter assay; type: cell-based; settings: Wnt TopFlash IC50 over TMEM16A eYFP IC50
COLO205 = test system: COLO205; parameters: method as in Li et al., 2014; settings: ref Li et al., 2014, read-out: IC50 inhibition of proliferation; cited from earlier work
mouse tracheal rings = test: Bronchodilation of cytokine-treated mouse tracheal rings; settings: overnight IL-1β, TNFα, IL-13 100 ng/ml, EC75 carbachol
Description: Airway rings were treated overnight in 2 ml DMEM + PSG/HEPES/AA/NaPyr buffer alone or with the same solution supplemented with 100 ng/ml of mTNFα, mIL-13 and mIL-1β. Unlike like the typical Wake-Up protocol and ring qualifying tests, mouse tracheal rings were not exposed to KPSS and rings were not observed to relax with a β-agonist following discovery of CCh dose-responses. After several washes with PSS, EC75 concentrations of CCh were used to pre-contract rings for >30 min alone or in the presence of cytokines.

mouse airway rings = test: Duration of bronchodilation after washout and carbachol re-challenge, mouse airway rings; settings: EC75 carbachol, preliminary
Description: Mouse airway rings were exposed to a typical Wake-Up procedure including the use of KPSS and discovery of EC75 CCh dose responses. However, no isoproterenol was used to observe tissue relaxation as part of the qualification procedure. With pre-contraction with EC75 CCh for >30 min, rings were subjected to a compound dose-response, followed by a complete washout of compound, and re-contracted with EC75 CCh. Traces were recorded for several hours thereafter and normalized to theophylline as control of 100% relaxation.

[2] = Homo sapiens, 10 μM histamine, read-out: EC50 bronchodilating histamine precontracted human airways
[3] = histamine pre-contracted, 10 μM

SMILES | block of native chloride current in COLO205 cells (COLO205 cells) | EC50 (human bronchial rings; [2]) [µM] | time to steady-state relaxation of human bronchial rings (human bronchial rings; [3]) | IC50 Ratio, Wnt/TMEM16A [1] | bronchodilation of cytokine-treated airways (mouse tracheal rings) | duration of bronchodilation after washout and re-challenge (mouse airway rings) | also measured
CC(C)(C)C1CCc2c(sc(NC(=O)c3ccco3)c2C(=O)O)C1 (centres unmarked) [CaCCinh-A01] | fully blocked | – | – | – | – | – | –
O=C(Nc1ccc([N+](=O)[O-])cc1Cl)c1cc(Cl)ccc1O [Niclosamide] | – | 0.97 | ~50 min | 2.62 | fully bronchodilated | long lasting; also recorded: sustained bronchodilation lasting several hours | EC50 (human bronchial rings; 10 μM histamine, read-out: EC50 bronchodilating histamine precontracted human airways): 0.967 µM; time to steady-state relaxation of human bronchial rings (human bronchial rings; histamine pre-contracted, 1 μM): ~92 min; IC50 (HT29): 4.17 µM; IC50 (COLO205): 0.98 µM
O=C(Nc1ccc(Cl)cc1)c1cc(Cl)ccc1O [Cpd 5] | – | – | – | 3.51 | – | – | –
CCc1oc2ccccc2c1C(=O)c1cc(Br)c(O)c(Br)c1 [Benzbromarone] | fully blocked | 5.65 | 80 to 140 min | – | fully bronchodilated | long lasting; also recorded: sustained bronchodilation lasting several hours | –
COc1cc([N+](=O)[O-])ccc1NC(=O)c1cc(Cl)c2ccccc2c1O [Cpd 4] | – | 3.45 | 50 − 125 min | – | – | – | EC50 (human bronchial rings; histamine pre-contracted, Donor 1 Ring 1, Donor 1 Ring 2, Donor 2 Ring 1, read-out: EC50 relaxation of human bronchial rings, individual rings): ~1.75 µM and ~6.3 µM and 3 µM
N#Cc1c(C(F)(F)F)cc(O)n2c1nc1ccccc12 [1PBC] | fully blocked | – | – | – | – | – | –
